Data published in PubChem BioAssay (NCI).
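Exposure lasted 48 hours, with cells grown in 96-well plates and compounds tested at five concentrations. Definition used: TGI = concentration required for complete inhibition of growth.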

Legend:
Assay in all cases: growth of human tumour cells (NCI), 48 h
UO-31 renal = system: UO-31 renal
SK-MEL-28 melanoma = system: SK-MEL-28 melanoma
SK-MEL-5 melanoma = system: SK-MEL-5 melanoma
PC-3 prostate = system: PC-3 prostate
UACC-257 melanoma = system: UACC-257 melanoma
LOX IMVI melanoma = system: LOX IMVI melanoma
HL-60(TB) leukemia = system: HL-60(TB) leukemia
OVCAR-8 ovarian = system: OVCAR-8 ovarian
SF-295 CNS = system: SF-295 CNS
SR leukemia = system: SR leukemia
HS 578T breast = system: HS 578T breast
786-0 renal = system: 786-0 renal
CAKI-1 renal = system: CAKI-1 renal
RPMI-8226 leukemia = system: RPMI-8226 leukemia
SK-MEL-2 melanoma = system: SK-MEL-2 melanoma
HCC-2998 colon = system: HCC-2998 colon
SNB-75 CNS = system: SNB-75 CNS
COLO 205 colon = system: COLO 205 colon
HT29 colon = system: HT29 colon
MDA-MB-435 = system: MDA-MB-435
HCT-15 colon = system: HCT-15 colon
SNB-19 CNS = system: SNB-19 CNS
BT-549 breast = system: BT-549 breast
ACHN renal = system: ACHN renal
NCI-H226 lung = system: NCI-H226 lung
HOP-62 NSCLC = system: HOP-62 NSCLC
HCT-116 colon = system: HCT-116 colon
OVCAR-4 ovarian = system: OVCAR-4 ovarian
MOLT-4 leukemia = system: MOLT-4 leukemia
DU-145 prostate = system: DU-145 prostate
EKVX NSCLC = system: EKVX NSCLC
MDA-N = system: MDA-N
UACC-62 melanoma = system: UACC-62 melanoma
MCF7 breast = system: MCF7 breast
SW-620 colon = system: SW-620 colon
NCI-H522 lung = system: NCI-H522 lung
KM12 colon = system: KM12 colon
SF-539 CNS = system: SF-539 CNS
T-47D breast = system: T-47D breast
A549 NSCLC = system: A549 NSCLC
NCI-H23 lung = system: NCI-H23 lung
M14 melanoma = system: M14 melanoma
HOP-92 NSCLC = system: HOP-92 NSCLC
CCRF-CEM leukemia = system: CCRF-CEM leukemia
NCI-H460 lung = system: NCI-H460 lung
SN12C renal = system: SN12C renal
SF-268 CNS = system: SF-268 CNS
NCI/ADR-RES ovarian = system: NCI/ADR-RES ovarian
IGROV1 ovarian = system: IGROV1 ovarian
OVCAR-5 ovarian = system: OVCAR-5 ovarian
U251 CNS = system: U251 CNS
MALME-3M melanoma = system: MALME-3M melanoma
TK-10 renal = system: TK-10 renal
OVCAR-3 ovarian = system: OVCAR-3 ovarian
MDA-MB-231 breast = system: MDA-MB-231 breast
K-562 leukemia = system: K-562 leukemia
SK-OV-3 ovarian = system: SK-OV-3 ovarian
RXF 393 renal = system: RXF 393 renal
A498 renal = system: A498 renal

## COc1cc(C=Nc2ccc(Oc3ccc(Cl)cc3)c(Cl)c2)cc(OC)c1OC
UO-31 renal
  TGI: 23.2 µM
SK-MEL-28 melanoma
  TGI: 53.8 µM
SK-MEL-5 melanoma
  TGI: 34.9 µM
PC-3 prostate
  TGI: 36.2 µM
UACC-257 melanoma
  TGI: 47.7 µM
LOX IMVI melanoma
  TGI: 32.2 µM
HL-60(TB) leukemia
  TGI: 48.6 µM
OVCAR-8 ovarian
  TGI: 62.1 µM
SF-295 CNS
  TGI: 37.3 µM
SR leukemia
  TGI: 54.1 µM
HS 578T breast
  TGI: 41.6 µM
786-0 renal
  TGI: 29.6 µM
CAKI-1 renal
  TGI: 72 µM
RPMI-8226 leukemia
  TGI: > 100 µM
SK-MEL-2 melanoma
  TGI: 45.9 µM
HCC-2998 colon
  TGI: 40.3 µM
SNB-75 CNS
  TGI: 57.9 µM
COLO 205 colon
  TGI: 34 µM
HT29 colon
  TGI: 44 µM
MDA-MB-435
  TGI: > 100 µM
HCT-15 colon
  TGI: 39.2 µM
SNB-19 CNS
  TGI: 49.1 µM
BT-549 breast
  TGI: 38 µM
ACHN renal
  TGI: 83.8 µM
NCI-H226 lung
  TGI: 80.9 µM
HOP-62 NSCLC
  TGI: 49 µM
HCT-116 colon
  TGI: 29.2 µM
OVCAR-4 ovarian
  TGI: 62.3 µM
MOLT-4 leukemia
  TGI: 76 µM
DU-145 prostate
  TGI: 38.6 µM
EKVX NSCLC
  TGI: 48.1 µM
MDA-N
  TGI: 51.3 µM
UACC-62 melanoma
  TGI: 30.4 µM
MCF7 breast
  TGI: 95.5 µM
SW-620 colon
  TGI: > 100 µM
NCI-H522 lung
  TGI: 28.1 µM
KM12 colon
  TGI: 38.1 µM
SF-539 CNS
  TGI: 35.2 µM
T-47D breast
  TGI: 39.7 µM
A549 NSCLC
  TGI: 44.7 µM
NCI-H23 lung
  TGI: 42 µM
M14 melanoma
  TGI: 58.2 µM
HOP-92 NSCLC
  TGI: 39.4 µM
CCRF-CEM leukemia
  TGI: 66.4 µM
NCI-H460 lung
  TGI: 39.9 µM
SN12C renal
  TGI: 40.3 µM
SF-268 CNS
  TGI: 30.5 µM
NCI/ADR-RES ovarian
  TGI: 48.8 µM
IGROV1 ovarian
  TGI: 67.1 µM
OVCAR-5 ovarian
  TGI: > 100 µM
U251 CNS
  TGI: 40.8 µM
MALME-3M melanoma
  TGI: 35.8 µM
TK-10 renal
  TGI: > 100 µM
OVCAR-3 ovarian
  TGI: 48.4 µM
MDA-MB-231 breast
  TGI: 35 µM

## CCN1CCc2sc3[nH]c(=S)n(C)c(=O)c3c2C1
UO-31 renal
  TGI: > 100 µM
SK-MEL-28 melanoma
  TGI: > 100 µM
SK-MEL-5 melanoma
  TGI: > 100 µM
PC-3 prostate
  TGI: > 100 µM
UACC-257 melanoma
  TGI: > 100 µM
LOX IMVI melanoma
  TGI: > 100 µM
HL-60(TB) leukemia
  TGI: 1.83 µM
K-562 leukemia
  TGI: > 100 µM
OVCAR-8 ovarian
  TGI: > 100 µM
SF-295 CNS
  TGI: > 100 µM
SK-OV-3 ovarian
  TGI: > 100 µM
HS 578T breast
  TGI: > 100 µM
786-0 renal
  TGI: > 100 µM
CAKI-1 renal
  TGI: > 100 µM
RPMI-8226 leukemia
  TGI: > 100 µM
SK-MEL-2 melanoma
  TGI: > 100 µM
HCC-2998 colon
  TGI: > 100 µM
RXF 393 renal
  TGI: > 100 µM
SNB-75 CNS
  TGI: > 100 µM
COLO 205 colon
  TGI: > 100 µM
HT29 colon
  TGI: > 100 µM
MDA-MB-435
  TGI: > 100 µM
HCT-15 colon
  TGI: > 100 µM
SNB-19 CNS
  TGI: > 100 µM
BT-549 breast
  TGI: > 100 µM
ACHN renal
  TGI: > 100 µM
NCI-H226 lung
  TGI: > 100 µM
HOP-62 NSCLC
  TGI: > 100 µM
HCT-116 colon
  TGI: > 100 µM
OVCAR-4 ovarian
  TGI: > 100 µM
MOLT-4 leukemia
  TGI: > 100 µM
DU-145 prostate
  TGI: > 100 µM
EKVX NSCLC
  TGI: > 100 µM
MDA-N
  TGI: > 100 µM
UACC-62 melanoma
  TGI: > 100 µM
MCF7 breast
  TGI: > 100 µM
SW-620 colon
  TGI: > 100 µM
NCI-H522 lung
  TGI: > 100 µM
KM12 colon
  TGI: > 100 µM
SF-539 CNS
  TGI: > 100 µM
T-47D breast
  TGI: > 100 µM
A549 NSCLC
  TGI: > 100 µM
NCI-H23 lung
  TGI: > 100 µM
M14 melanoma
  TGI: > 100 µM
HOP-92 NSCLC
  TGI: > 100 µM
A498 renal
  TGI: > 100 µM
CCRF-CEM leukemia
  TGI: > 100 µM
NCI-H460 lung
  TGI: > 100 µM
SN12C renal
  TGI: > 100 µM
SF-268 CNS
  TGI: > 100 µM
NCI/ADR-RES ovarian
  TGI: > 100 µM
IGROV1 ovarian
  TGI: > 100 µM
OVCAR-5 ovarian
  TGI: > 100 µM
U251 CNS
  TGI: > 100 µM
MALME-3M melanoma
  TGI: > 100 µM
TK-10 renal
  TGI: > 100 µM
OVCAR-3 ovarian
  TGI: > 100 µM
MDA-MB-231 breast
  TGI: > 100 µM
